“And” between values parts separate entries of the source, which are not always exact repeats. Equal values may be shown once. Read-outs that look alike come from different tables or passages of the source.
Columns and labels:
[1] = test system: S. aureus ATCC 27733 or 8325-4; test: Milk agar plate assay of S. aureus protease activity; assay type: cell-based, Staphylococcus aureus; details: FIG. 2
Procedure: In a second assay for measuring S. aureus protease activity directly, S. aureus ATCC 27733 or 8325-4 was cultured on 10% (v/v) skimmed milk agar plates containing 2% (v/v) DMSO with or without compound. Compounds dissolved in DMSO were incorporated into the solid medium immediately prior to pouring.

[2] = molecular target: T1, purified aureolysin type I (Staphylococcus aureus, UniProt P81177); test: biochemical
T1 construct: purchased BioCentrum Ltd

[3] = molecular target: T2, purified aureolysin type II (Staphylococcus aureus, UniProt P81177); test: Aureolysin enzyme inhibition assay, type II; assay type: biochemical
T2 sequence (P81177 1-509): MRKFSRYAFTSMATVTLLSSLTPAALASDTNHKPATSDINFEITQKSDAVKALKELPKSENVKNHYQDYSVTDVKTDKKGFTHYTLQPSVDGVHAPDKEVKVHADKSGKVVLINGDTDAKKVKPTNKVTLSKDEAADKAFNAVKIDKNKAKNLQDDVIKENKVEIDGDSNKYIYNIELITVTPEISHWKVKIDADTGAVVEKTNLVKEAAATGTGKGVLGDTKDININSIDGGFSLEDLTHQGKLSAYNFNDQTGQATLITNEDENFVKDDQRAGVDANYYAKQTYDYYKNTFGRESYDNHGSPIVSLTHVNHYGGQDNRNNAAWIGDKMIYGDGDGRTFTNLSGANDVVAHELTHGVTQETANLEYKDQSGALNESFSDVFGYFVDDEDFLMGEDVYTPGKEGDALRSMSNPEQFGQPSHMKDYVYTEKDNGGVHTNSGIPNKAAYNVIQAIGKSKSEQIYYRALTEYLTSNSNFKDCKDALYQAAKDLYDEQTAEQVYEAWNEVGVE

human MMP-1 = molecular target: T3, human MMP-1 (Homo sapiens, UniProt P03956); test: MMP enzyme inhibition assay, MMP-1; assay type: biochemical; details: for IC50: pH 7.5, 37° C., 1 hour
T3 construct: purchased Calbiochem
T3 sequence (P03956 100-469): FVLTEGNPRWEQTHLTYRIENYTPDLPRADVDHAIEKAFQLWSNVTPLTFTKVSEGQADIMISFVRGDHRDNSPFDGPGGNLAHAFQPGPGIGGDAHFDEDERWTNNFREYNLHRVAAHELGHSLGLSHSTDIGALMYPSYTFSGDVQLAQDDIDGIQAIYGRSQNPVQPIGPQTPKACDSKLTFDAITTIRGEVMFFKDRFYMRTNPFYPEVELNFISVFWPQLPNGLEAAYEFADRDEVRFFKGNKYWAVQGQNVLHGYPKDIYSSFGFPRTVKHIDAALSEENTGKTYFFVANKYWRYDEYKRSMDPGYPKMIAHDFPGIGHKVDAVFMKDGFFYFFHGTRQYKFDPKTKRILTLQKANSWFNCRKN

human MMP-2 = molecular target: T4, human MMP-2 (Homo sapiens, UniProt P08253); test: MMP enzyme inhibition assay, MMP-2; assay type: biochemical; details: for IC50: pH 7.5, 37° C., 1 hour
T4 construct: purchased Calbiochem
T4 sequence (P08253 110-660): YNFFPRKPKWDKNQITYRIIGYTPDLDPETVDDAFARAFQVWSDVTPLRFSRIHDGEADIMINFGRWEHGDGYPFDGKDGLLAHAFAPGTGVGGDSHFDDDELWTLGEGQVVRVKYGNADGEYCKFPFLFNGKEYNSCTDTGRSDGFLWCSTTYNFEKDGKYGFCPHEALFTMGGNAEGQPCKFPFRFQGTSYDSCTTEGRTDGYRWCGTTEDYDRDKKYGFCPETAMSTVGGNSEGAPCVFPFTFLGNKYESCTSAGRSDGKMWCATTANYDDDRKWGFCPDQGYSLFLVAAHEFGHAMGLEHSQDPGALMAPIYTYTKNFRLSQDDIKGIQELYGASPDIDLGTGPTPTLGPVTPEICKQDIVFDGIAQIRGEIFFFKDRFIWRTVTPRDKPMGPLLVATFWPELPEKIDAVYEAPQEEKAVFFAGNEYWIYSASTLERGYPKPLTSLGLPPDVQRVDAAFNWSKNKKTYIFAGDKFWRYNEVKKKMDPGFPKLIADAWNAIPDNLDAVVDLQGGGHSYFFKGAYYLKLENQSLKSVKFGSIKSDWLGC

human MMP-8 = molecular target: T5, human MMP-8 (Homo sapiens, UniProt P22894); test: MMP enzyme inhibition assay, MMP-8; assay type: biochemical; details: for IC50: pH 7.5, 37° C., 1 hour
T5 construct: purchased Calbiochem
T5 sequence (P22894 101-467): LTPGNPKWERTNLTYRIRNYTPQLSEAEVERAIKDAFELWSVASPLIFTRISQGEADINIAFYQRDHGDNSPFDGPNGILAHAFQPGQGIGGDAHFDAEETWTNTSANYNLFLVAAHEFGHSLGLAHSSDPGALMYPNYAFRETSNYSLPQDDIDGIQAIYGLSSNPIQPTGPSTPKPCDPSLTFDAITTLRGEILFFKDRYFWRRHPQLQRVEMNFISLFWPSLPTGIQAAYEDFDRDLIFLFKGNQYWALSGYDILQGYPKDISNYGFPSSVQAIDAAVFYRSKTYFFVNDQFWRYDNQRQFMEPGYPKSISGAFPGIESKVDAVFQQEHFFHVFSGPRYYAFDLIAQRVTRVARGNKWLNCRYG

human MMP-9 = molecular target: T6, human MMP-9 (Homo sapiens, UniProt P14780); test: MMP enzyme inhibition assay, MMP-9; assay type: biochemical; details: for IC50: pH 7.5, 37° C., 1 hour
T6 construct: purchased Calbiochem
T6 sequence (P14780 94-707): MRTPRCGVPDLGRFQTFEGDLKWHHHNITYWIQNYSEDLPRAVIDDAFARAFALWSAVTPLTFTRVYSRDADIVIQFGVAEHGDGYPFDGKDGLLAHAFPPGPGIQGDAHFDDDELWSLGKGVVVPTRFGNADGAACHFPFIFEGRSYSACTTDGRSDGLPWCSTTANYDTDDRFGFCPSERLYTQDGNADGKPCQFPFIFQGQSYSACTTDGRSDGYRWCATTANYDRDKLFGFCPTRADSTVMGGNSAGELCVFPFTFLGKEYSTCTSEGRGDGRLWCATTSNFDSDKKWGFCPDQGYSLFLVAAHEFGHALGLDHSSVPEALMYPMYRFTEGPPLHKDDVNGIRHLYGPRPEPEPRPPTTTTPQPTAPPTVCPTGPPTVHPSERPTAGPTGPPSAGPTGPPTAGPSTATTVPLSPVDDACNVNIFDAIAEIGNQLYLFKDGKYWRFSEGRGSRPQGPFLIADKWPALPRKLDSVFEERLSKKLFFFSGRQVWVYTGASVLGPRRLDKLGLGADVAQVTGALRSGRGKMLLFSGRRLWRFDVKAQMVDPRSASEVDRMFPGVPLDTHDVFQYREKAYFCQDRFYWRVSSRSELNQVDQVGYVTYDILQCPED

[4] = molecular target: T7, metalloprotease (aureolysin) activity in Staphylococcus aureus 8325-4 culture supernatants (Staphylococcus aureus, UniProt P81177); test: Metalloprotease activity in S. aureus culture supernatants; assay type: biochemical
T7 construct: 4 μl S. aureus culture supernatant; endogenous in cells; host or cells: Staphylococcus aureus 8325-4 (culture supernatant)
Procedure: The culture was then centrifuged to remove the cells and the supernatant stored at −70° C. for subsequent use. […] Activity was expressed as the rate of increase in fluorescence as a function of time.

aureolysin = aureolysin (Staphylococcus aureus, UniProt P81177); test: Inhibition of aureolysin-mediated pro-uPA activation; details: for Urokinase activity after pro-uPA activation: Expt. 2, Compound 13 20 μM, pH 5.6
Excerpt: Under these conditions the extent of pro-uPA cleavage as assessed by uPA activity was directly proportional to the concentration of aureolysin in the assay.

[5] = test system: Human skin epidermal keratinocytes; test: Keratinocyte activation, IL-8 production; assay type: cell-based; details: 48 hours, aureolysin 50 μg/ml
Excerpt: Activated keratinocytes produce IL-8, a proinflammatory chemokine. Many bacterial products cause the activation of keratinocytes. Aureolysin may be evaluated for its effects on IL-8 production by keratinocytes. Human skin epidermal keratinocytes (TCS Cellworks) are maintained as per instructions. Proliferating cultures are trypsinised, harvested, treated with a trypsin inhibitor and resuspended in growth medium at approximately 50,000 cells/well, to provide confluent monolayers in 96 well plates. Cells are incubated overnight at 37° C. at 5% CO2 to allow recovery, the spent medium aspirated from the wells and replaced with fresh growth medium. The cells are incubated at 37° C. at 5% CO2 for a further 24 or 48 hours with aureolysin or buffer control.
The supernatants are removed from each well and the concentration of IL-8 is determined using a human IL-8 ELISA development kit from R&D systems (Catalog Number: DY208) using the manufacturers instructions.
In these experiments, the cells are incubated at 37° C. at 5% CO2 for 48 hours with aureolysin or buffer control. Poly IC and lipoteichoic acid (LTA), which stimulate IL-8 production in keratinocytes were used as positive controls.

S. aureus 8325-4 = test: S. aureus growth by turbidometry in micro-titre plates; assay type: cell-based, Staphylococcus aureus; details: Staphylococcus aureus, 83254, read-out: IC50 value (50% decrease in terminal absorbance); overnight, absorbance 620 nm
Procedure: Tryptic soy broth (0.18 ml) containing S. aureus 8325-4 (approximately 10^5 cells) was mixed with 20 μl 20% (v/v) DMSO vehicle±compound in the wells of a flat-bottomed clear polystyrene 96-well micro-titre plate. The plate was incubated overnight at 37° C./220 rpm and the absorbance measured at 620 nm the following day.

[6] = pH 6.8, 37° C., 1 hour; read-out: IC50 value Aureolysin type II

Molecule | IC50 [2] [nM] | IC50 [3, 6] [nM] | IC50 (human MMP-1) [nM] | IC50 (human MMP-2) [nM] | IC50 (human MMP-8) [nM] | IC50 (human MMP-9) [nM] | IC50 [4] [nM] | further results
CNC(=O)[C@@H](NC(=O)[C@H](CC(C)C)[C@H](O)C(=O)NO)C(C)(C)C [Compound 3, marimastat] |  |  |  |  |  |  |  | inhibition of proteolytic activity, zone of clearance of milk proteins (in words) [1]: inhibition of proteolytic activity
CO[C@H](C(=O)NO)[C@@H](CC(C)C)C(=O)N[C@H](C(=O)Nc1ccccn1)C(C)(C)C [Compound 7, solimastat] | 2200 | 3500 | 3.3 | 3.2 | 1.7 | 5.1 | 4500 | 
CC(C)C[C@H](NP(=O)(O)O[C@@H]1O[C@@H](C)[C@H](O)[C@@H](O)[C@H]1O)C(=O)N[C@@H](Cc1c[nH]c2ccccc12)C(=O)O [Compound 15, phosphoramidon] | 2800 | 2300 |  |  |  |  | 3300 | inhibition at 2.7 µM (human MMP-1; @ 2.7 μM): 0%; inhibition at 2.7 µM (human MMP-2; @ 2.7 μM): 0%; inhibition at 2.7 µM (human MMP-8; @ 2.7 μM): 0%; inhibition at 2.7 µM (human MMP-9; @ 2.7 μM): 0%
CNC(=O)C(CCc1ccccc1)NC(=O)C(CC(=O)NO)CC(C)C (stereo not shown) [Compound 13] | 330 | 690 | 5.6 | 1.1 | 1.6 | 1.9 | 690 | Urokinase activity after pro-uPA activation (aureolysin; aureolysin 0 μg/ml): 0.11 A405/0.5 h/μg; Urokinase activity after pro-uPA activation (aureolysin; aureolysin 0.1 μg/ml): 0.36 A405/0.5 h/μg; Urokinase activity after pro-uPA activation (aureolysin; aureolysin 0.3 μg/ml): 0.52 A405/0.5 h/μg; Urokinase activity after pro-uPA activation (aureolysin; aureolysin 0.8 μg/ml): 0.96 A405/0.5 h/μg; inhibition at 20 µM (aureolysin; pH 5.6, read-out: inhibition of aureolysin activation of pro-uPA): ≥ 82%
CNC(=O)[C@H](CCc1ccccc1)NC(=O)[C@H](CC(=O)NO)CC(C)C [Compound 16, (S)—N4-hydroxy-2-isobutyl-N1-((S)-1-(methylamino)-1-oxo-4-phenylbutan-2-yl)succinamide] | 57 | 93 | 6200 | 2100 | 1600 | 2000 | 95 | 
COc1ccc(S(=O)(=O)N(CC(=O)NO)CC(C)C)cc1 [Compound 14] | 1000 |  |  | 4.6 | 21 | 10 | 3600 | IC50 ([3]; read-out: IC50 value Aureolysin type II; pH 6.8, 37° C., 1 hour): 2500 nM
Poly IC |  |  |  |  |  |  |  | IL-8 ± SE [5]: 282 pg/mL and 282 ± 0.9 pg/mL
CNC(=O)[C@H](Cc1c[nH]c2ccccc12)NC(=O)[C@@H](CC(=O)NO)CC(C)C [Compound 1, ilomastat] | 260 | 430 |  |  |  |  | 570 | 
lipoteichoic acid [LTA] |  |  |  |  |  |  |  | IL-8 ± SE [5]: 454 pg/mL and 454 ± 61.0 pg/mL
CC(C)C[C@@H](C(=O)N[C@H](C(=O)N(C)C)C(C)(C)C)[C@H](O)C(=O)NO [Compound 5] | 27000 | 41000 | 11 | 7.7 | 3.9 | 30 | 44000 | 
CNC(=O)[C@H](CCc1ccccc1)NC(=O)[C@@H](CC(=O)NO)CC(C)C [Compound 17, (R)—N4-hydroxy-2-isobutyl-N1-((S)-1-(methylamino)-1-oxo-4-phenylbutan-2-yl)succinamide] | 1200 | 2300 | 17 | 2.4 | 4.4 | 5.9 | 2300 | 
CC(C)C[C@@H](C(=O)N[C@H](C(=O)Nc1ccccn1)C(C)(C)C)[C@H](O)C(=O)NO [Compound 9] | 1500 | 2400 | 3.1 | 1.8 | 1.7 | 4.1 | 2900 | 
CCCCC[C@H](CC(=O)NO)C(=O)N[C@H](C(=O)N1CCC[C@H]1CO)C(C)C [Actinonin, actinonin, reference compound] |  |  |  |  |  |  |  | IC50 (S. aureus 8325-4): 2600 nM

From patent publication US20070049518A1, “Novel method of treatment of inflammatory skin conditions” (priority 2005, published 2007)
